Results reported in PubChem BioAssay AID248 (DTP/NCI, 2004).
Where “and” joins values, the source holds several entries; their conditions need not be identical. Equal entries are not always repeated. Inconclusive results and toxic doses are left out. No stated cut-off is given here; in the data, active means T/C of 150% or more; inactive means T/C below 125%.

Tested on: L1210 leukemia ip in BDF1 mice, survival T/C
Experiment: NCI In Vivo Anticancer Drug Screen. Data for tumor model L1210 Leukemia (intraperitoneal) in B6D2F1 (BDF1) mice
Details: endpoint: mean survival time, higher = longer survival
In short: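 Each compound was tested against a transplantable tumor grown in mice. The endpoint was survival, with treated animals benchmarked against vehicle controls as a simple ratio.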

[1] = dose: 100.0 mg/kg/injection, schedule: Q04DX003 (ip), vehicle: saline with Tween-80
[2] = dose: 200.0 mg/kg/injection, schedule: Q04DX003 (ip), vehicle: saline with Tween-80
[3] = dose: 400.0 mg/kg/injection, schedule: Q04DX003 (ip), vehicle: saline with Tween-80
[4] = dose: 100.0 mg/kg/injection, schedule: Q04DX002 (ip), vehicle: Klucel (hydroxypropylcellulose) (HPC)
[5] = dose: 100.0 mg/kg/injection, schedule: Q04DX002 (ip), vehicle: saline with Tween-80
[6] = dose: 200.0 mg/kg/injection, schedule: Q04DX002 (ip), vehicle: Klucel (hydroxypropylcellulose) (HPC)
[7] = dose: 200.0 mg/kg/injection, schedule: Q04DX002 (ip), vehicle: saline with Tween-80
[8] = dose: 400.0 mg/kg/injection, schedule: Q04DX002 (ip), vehicle: Klucel (hydroxypropylcellulose) (HPC)
[9] = dose: 100.0 mg/kg/injection, schedule: Q04DX002 (ip), vehicle: gum acacia
[10] = dose: 200.0 mg/kg/injection, schedule: Q04DX002 (ip), vehicle: gum acacia
[11] = dose: 400.0 mg/kg/injection, schedule: Q04DX002 (ip), vehicle: gum acacia
[12] = dose: 100.0 mg/kg/injection, schedule: Q01DX001 (ip), vehicle: saline
[13] = dose: 200.0 mg/kg/injection, schedule: Q01DX001 (ip), vehicle: saline
[14] = dose: 100.0 mg/kg/injection, schedule: Q04DX003 (ip), vehicle: Klucel (hydroxypropylcellulose) (HPC)
[15] = dose: 200.0 mg/kg/injection, schedule: Q04DX003 (ip), vehicle: Klucel (hydroxypropylcellulose) (HPC)
[16] = dose: 400.0 mg/kg/injection, schedule: Q04DX003 (ip), vehicle: Klucel (hydroxypropylcellulose) (HPC)
[17] = dose: 100.0 mg/kg/injection, schedule: Q01DX009 (ip), vehicle: Klucel (hydroxypropylcellulose) (HPC)
[18] = dose: 200.0 mg/kg/injection, schedule: Q01DX009 (ip), vehicle: Klucel (hydroxypropylcellulose) (HPC)
[19] = dose: 400.0 mg/kg/injection, schedule: Q01DX009 (ip), vehicle: Klucel (hydroxypropylcellulose) (HPC)
[20] = dose: 100.0 mg/kg/injection, schedule: Q01DX009 (ip), vehicle: gum acacia
[21] = dose: 100.0 mg/kg/injection, schedule: Q04DX003 (ip), vehicle: gum acacia
[22] = dose: 200.0 mg/kg/injection, schedule: Q04DX003 (ip), vehicle: gum acacia
[23] = dose: 400.0 mg/kg/injection, schedule: Q04DX003 (ip), vehicle: gum acacia
[24] = dose: 400.0 mg/kg/injection, schedule: Q01DX001 (ip), vehicle: saline

Measured: T/C

CCOC(=O)C(C(=O)OCC)c1cc(NC(=O)c2ccccc2)ccc1NC(=O)c1ccccc1
inactive: [1] 98 % of control | [2] 95 % of control | [3] 95 % of control

C1=C(c2ccccc2)N(Cc2ccccc2)C(c2ccccc2)=CN1Cc1ccccc1
inactive: dose: 50.0 mg/kg/injection, schedule: Q04DX002 (ip), vehicle: saline with Tween-80 105 % of control | [4] 107 % of control | [5] 96 % of control | [6] 96 % of control | [7] 96 % of control | [8] 111 % of control

CC(=O)Nc1ccc(/C=C(\C#N)c2ccc([N+](=O)[O-])cc2)cc1
inactive: [9] 95 % of control | [10] 103 % of control | [11] 95 % of control

CCCCCCCNC(=O)CI
inactive: [12] 103 % of control | [13] 111 % of control

O=C(CCNC(=O)OCc1ccccc1)NC(Cc1ccccc1)C(=O)OCc1ccccc1 (stereo unspecified)
inactive: [1] 103 % of control | [2] 97 % of control | [3] 95 % of control

CCOC1c2cc(OC)ccc2C(=O)CCN1S(=O)(=O)c1ccc(C)cc1 (stereo unspecified)
inactive: [14] 92 % of control | [15] 91 % of control | [16] 96 % of control

COc1cc(OC)c(/C=C/c2ccc3ccccc3[n+]2[O-])c(OC)c1
inactive: [9] 95 % of control | [10] 95 % of control | [11] 100 % of control

O=Cc1cccc(OCc2cccc([N+](=O)[O-])c2)c1
inactive: [17] 98 % of control | [4] 108 % of control | dose: 100.0 mg/kg/injection, schedule: Q04DX002 (ip), vehicle: saline 102 % of control | [18] 102 % of control | [6] 105 % of control | dose: 200.0 mg/kg/injection, schedule: Q04DX002 (ip), vehicle: saline 97 % of control | [19] 95 % of control | [8] 97 % of control | dose: 400.0 mg/kg/injection, schedule: Q04DX002 (ip), vehicle: saline 108 % of control

O=C(Nc1ccccc1)c1cc(Cl)cc(Cl)c1Br
inactive: dose: 100.0 mg/kg/injection, schedule: Q01DX001 (ip), vehicle: other 96 % of control | dose: 200.0 mg/kg/injection, schedule: Q01DX001 (ip), vehicle: other 96 % of control | dose: 400.0 mg/kg/injection, schedule: Q01DX001 (ip), vehicle: other 95 % of control

Cc1cc(C)c(O)c(CN(C)Cc2c(C)[nH]c(=O)[nH]c2=O)c1
inactive: dose: 100.0 mg/kg/injection, schedule: Q01DX001 (ip), vehicle: carboxymethylcellulose (CMC) 98 % of control | dose: 200.0 mg/kg/injection, schedule: Q01DX001 (ip), vehicle: carboxymethylcellulose (CMC) 91 % of control | dose: 400.0 mg/kg/injection, schedule: Q01DX001 (ip), vehicle: carboxymethylcellulose (CMC) 91 % of control

COc1ccc(OC)c(NC(=O)CCl)c1
inactive: dose: 25.0 mg/kg/injection, schedule: Q01DX009 (ip), vehicle: Klucel (hydroxypropylcellulose) (HPC) 96 % of control | dose: 25.0 mg/kg/injection, schedule: Q04DX002 (ip), vehicle: Klucel (hydroxypropylcellulose) (HPC) 96 % of control | dose: 50.0 mg/kg/injection, schedule: Q01DX009 (ip), vehicle: Klucel (hydroxypropylcellulose) (HPC) 98 % of control | dose: 50.0 mg/kg/injection, schedule: Q04DX002 (ip), vehicle: Klucel (hydroxypropylcellulose) (HPC) 93 % of control | [17] 89 % of control and 90 % of control | [4] 93 % of control and 106 % of control

CCc1ccccc1NC(=O)Nc1ccc(Cl)c(Cl)c1
inactive: [17] 88 % of control | [14] 98 % of control | [18] 96 % of control | [15] 93 % of control | [19] 88 % of control | [16] 104 % of control

COc1ccc(Cl)cc1NC(=O)Oc1ccc(C(C)=O)cc1
inactive: dose: 100.0 mg/kg/injection, schedule: Q01DX001 (ip), vehicle: saline with Tween-80 100 % of control | dose: 100.0 mg/kg/injection, schedule: Q01DX009 (ip), vehicle: saline with Tween-80 97 % of control and 104 % of control | [5] 121 % of control | [1] 90 % of control | dose: 200.0 mg/kg/injection, schedule: Q01DX001 (ip), vehicle: saline with Tween-80 100 % of control | dose: 200.0 mg/kg/injection, schedule: Q01DX009 (ip), vehicle: saline with Tween-80 96 % of control | [7] 99 % of control | [2] 87 % of control | dose: 400.0 mg/kg/injection, schedule: Q01DX001 (ip), vehicle: saline with Tween-80 93 % of control | dose: 400.0 mg/kg/injection, schedule: Q01DX009 (ip), vehicle: saline with Tween-80 100 % of control and 86 % of control | dose: 400.0 mg/kg/injection, schedule: Q04DX002 (ip), vehicle: saline with Tween-80 99 % of control | [3] 99 % of control

CN(NC(=O)CC(=O)NN(C)C(=S)c1ccccc1)C(=S)c1ccccc1
inactive: dose: 25.0 mg/kg/injection, schedule: Q01DX009 (ip), vehicle: gum acacia 109 % of control | dose: 50.0 mg/kg/injection, schedule: Q01DX009 (ip), vehicle: gum acacia 104 % of control | [20] 100 % of control and 92 % of control | [21] 90 % of control | [22] 97 % of control | [23] 92 % of control

CNc1ccccc1C=O
inactive: [12] 94 % of control | [13] 97 % of control | [24] 100 % of control

C/C=C1/CC(C)C(O)(CO)C(=O)OCC2=CCN3CCC(OC1=O)C23 (stereo unspecified)
inactive: dose: 75.0 mg/kg/injection, schedule: Q01DX001 (ip), vehicle: carboxymethylcellulose (CMC) 100 % of control

CC(C)C1(C(C)C)S(=O)(=O)CCS1(=O)=O
inactive: [12] 98 % of control | [13] 93 % of control | [24] 102 % of control

CN(C)c1ccccc1C#N
inactive: dose: 100.0 mg/kg/injection, schedule: Q01DX009 (ip), vehicle: carboxymethylcellulose (CMC) 93 % of control and 103 % of control | dose: 100.0 mg/kg/injection, schedule: Q04DX002 (ip), vehicle: carboxymethylcellulose (CMC) 108 % of control | dose: 100.0 mg/kg/injection, schedule: Q04DX003 (ip), vehicle: carboxymethylcellulose (CMC) 106 % of control | dose: 200.0 mg/kg/injection, schedule: Q01DX009 (ip), vehicle: carboxymethylcellulose (CMC) 98 % of control and 104 % of control | dose: 200.0 mg/kg/injection, schedule: Q04DX002 (ip), vehicle: carboxymethylcellulose (CMC) 94 % of control | dose: 200.0 mg/kg/injection, schedule: Q04DX003 (ip), vehicle: carboxymethylcellulose (CMC) 101 % of control | dose: 400.0 mg/kg/injection, schedule: Q01DX009 (ip), vehicle: carboxymethylcellulose (CMC) 113 % of control | dose: 400.0 mg/kg/injection, schedule: Q04DX002 (ip), vehicle: carboxymethylcellulose (CMC) 115 % of control | dose: 400.0 mg/kg/injection, schedule: Q04DX003 (ip), vehicle: carboxymethylcellulose (CMC) 98 % of control

CC(=O)c1cccc(OC(=O)Nc2ccc(C)cc2)c1
inactive: dose: 100.0 mg/kg/injection, schedule: Q01DX001 (ip), vehicle: gum acacia 89 % of control | [20] 95 % of control and 88 % of control | [21] 98 % of control and 100 % of control | dose: 200.0 mg/kg/injection, schedule: Q01DX001 (ip), vehicle: gum acacia 100 % of control | dose: 200.0 mg/kg/injection, schedule: Q01DX009 (ip), vehicle: gum acacia 98 % of control and 105 % of control | [22] 93 % of control and 90 % of control | dose: 400.0 mg/kg/injection, schedule: Q01DX001 (ip), vehicle: gum acacia 90 % of control | dose: 400.0 mg/kg/injection, schedule: Q01DX009 (ip), vehicle: gum acacia 98 % of control and 109 % of control | [23] 97 % of control and 103 % of control

CC1(CCCCCBr)OCCO1
inactive: [17] 97 % of control | [18] 100 % of control | [19] 94 % of control
